pEC50, pKi: −log10 of the molar value.
Tests used:
Adenosine A2A = Adenosine A2A (Homo sapiens (Human), UniProt P29274); assay: A2A Tag-lite HTRF assay (Example C); details: Tag-lite Adenosine A2A labeled cells, Red antagonist fluorescent ligand 12.5 nM, one-site competitive binding; read-out: A2A_Ki
Method: Example C. A2A Tag-Lite® HTRF Assay
Assays were conducted in black low volume 384-well polystyrene plates (Greiner 784076-25) in a final volume of 10 μL. Test compounds were first serially diluted in DMSO and 100 nl added to the plate wells before the addition of other reaction components. The final concentration of DMSO was 1%. Tag-lite® Adenosine A2A labeled cells (CisBio C1TT1A2A) were diluted 1:5 into Tag-lite buffer (CisBio LABMED) and spun 1200 g for 5 mins. The pellet was resuspended at a volume 10.4× the initial cell suspension volume in Tag-lite buffer, and Adenosine A2A Receptor Red antagonist fluorescent ligand (CisBio L0058RED) added at 12.5 nM final concentration. 10 ul of the cell and ligand mix was added to the assay wells and incubated at room temperature for 45 minutes before reading on a PHERAstar FS plate reader (BMG Labtech) with HTRF 337/620/665 optical module. Percent binding of the fluorescent ligand was calculated; where 100 nM of A2A antagonist control ZM 241385 (Tocris 1036) displaces the ligand 100% and 1% DMSO has 0% displacement. The % binding data versus the log of the inhibitor concentration was fitted to a one-site competitive binding model (GraphPad Prism version 7.02) where the ligand constant=12.5 nM and the ligand Kd=1.85 nM.

[1] = molecular target: human adenosine A2B receptor (Homo sapiens (Human), UniProt P29275); assay: Adenosine A2B receptor cyclic AMP GS assay (Example B); assay type: cell-based; details: HEK-293 cells expressing human A2B, agonist NECA 12 nM, cAMP accumulation (FRET); read-out: A2B_cAMP_EC50
Chain of human adenosine A2B receptor (P29275 whole entry): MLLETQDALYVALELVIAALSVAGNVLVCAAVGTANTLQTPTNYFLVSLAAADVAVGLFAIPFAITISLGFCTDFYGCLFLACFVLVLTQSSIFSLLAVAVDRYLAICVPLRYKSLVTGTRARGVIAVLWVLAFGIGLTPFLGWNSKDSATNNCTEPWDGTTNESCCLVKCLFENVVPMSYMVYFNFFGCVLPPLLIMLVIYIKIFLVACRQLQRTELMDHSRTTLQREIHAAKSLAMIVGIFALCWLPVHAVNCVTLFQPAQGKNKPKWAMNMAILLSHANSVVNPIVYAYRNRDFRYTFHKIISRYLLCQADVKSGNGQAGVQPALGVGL
Method: Example B. Adenosine A2B Receptor Cyclic AMP GS Assay
Stably transfected HEK-293 cells expressing the human adenosine A2B receptor (Perkin Elmer) were maintained in MEM culture medium with 10% FBS and 100 μg/ml Geneticin (Life Technologies). 18 to 24 hours prior to assay, geneticin was removed from culture. The cisbio cAMP-GS Dynamic kit utilizing the FRET (Fluorescence Resonance Energy Transfer) technology was used to measure cAMP accumulation in the cells. Compounds of the present disclosure at an appropriate concentration were mixed with 10000 cells/well in white 96 well half area plates (Perkin Elmer) for 30 min at RT gently shaking. Agonist, NECA (R&D Technologies) at 12 nM was added to each well for 60 min at RT gently shaking. Detection reagents, d2-labeled cAMP (acceptor) and anti-cAMP cryptate (donor) were added to each well for 60 min at RT gently shaking. Plates were read on Pherastar (BMG Labtech), fluorescence ratio 665/620 was calculated and EC50 determination was performed by fitting the curve of percent of control versus the log of the compound concentration using GraphPad Prism.

Chain of Adenosine A2A (P29274 whole entry): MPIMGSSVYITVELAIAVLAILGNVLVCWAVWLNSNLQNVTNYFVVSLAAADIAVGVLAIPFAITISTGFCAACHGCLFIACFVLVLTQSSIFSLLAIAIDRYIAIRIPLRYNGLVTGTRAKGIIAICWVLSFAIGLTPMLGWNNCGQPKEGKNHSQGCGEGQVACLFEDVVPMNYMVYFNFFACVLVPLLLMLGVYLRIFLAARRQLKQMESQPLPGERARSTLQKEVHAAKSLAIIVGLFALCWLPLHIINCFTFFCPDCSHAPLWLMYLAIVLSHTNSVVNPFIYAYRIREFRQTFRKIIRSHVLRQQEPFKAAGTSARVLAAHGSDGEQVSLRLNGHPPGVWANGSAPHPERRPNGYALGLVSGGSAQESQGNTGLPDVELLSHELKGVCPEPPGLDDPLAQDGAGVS

Row | SMILES | pKi (Adenosine A2A) | pEC50 [1]
1 | N#Cc1cccc(-c2nc(N)n3nc(Cn4nnnc4-c4cccnc4)nc3c2-c2ccncn2)c1 [Example 53, 3-(5-amino-2-((5-(pyridin-3-yl)-1H-tetrazol-1-yl)methyl)-8-(pyrimidin-4-yl)-[1,2,4]triazolo[1,5-c]pyrimidin-7-yl)benzonitrile] | ≥ 8.00 | ≥ 8.00
2 | N#Cc1cccc(-c2nc(N)n3nc(Cn4nnnc4-c4ccncc4)nc3c2-c2ccncn2)c1 [Example 54, 3-(5-amino-2-((5-(pyridin-4-yl)-1H-tetrazol-1-yl)methyl)-8-(pyrimidin-4-yl)-[1,2,4]triazolo[1,5-c]pyrimidin-7-yl)benzonitrile] | ≥ 8.00 | ≥ 8.00
3 | Cc1cccc(COc2nc3c(-c4ccc(=O)n(C)c4)c(-c4cccc(C#N)c4)nc(N)n3n2)n1 [Example 55, 3-(5-amino-8-(1-methyl-6-oxo-1,6-dihydropyridin-3-yl)-2-((6-methylpyridin-2-yl)methoxy)-[1,2,4]triazolo[1,5-c]pyrimidin-7-yl)benzonitrile] | ≥ 8.00 | 7.00 to 8.00
4 | Cc1cccc(COc2nc3c(-c4ccncc4C)c(-c4cccc(C#N)c4)nc(N)n3n2)n1 [Example 57, 3-(5-amino-2-((6-methylpyridin-2-yl)methoxy)-8-(3-methylpyridin-4-yl)-[1,2,4]triazolo[1,5-c]pyrimidin-7-yl)benzonitrile] | ≥ 8.00 | 7.00 to 8.00
5 | Cc1cc(-c2c(-c3cccc(C#N)c3)nc(N)n3nc(OCc4cccc(C)n4)nc23)cc(C)n1 [Example 58, 3-(5-amino-8-(2,6-dimethylpyridin-4-yl)-2-((6-methylpyridin-2-yl)methoxy)-[1,2,4]triazolo[1,5-c]pyrimidin-7-yl)benzonitrile] | ≥ 8.00 | 6.00 to 7.00

Now from value to compound:

Row | pKi (Adenosine A2A) | pEC50 [1] | SMILES
6 | ≥ 8.00 | 7.00 to 8.00 | COc1cc(-c2c(-c3cccc(C#N)c3)nc(N)n3nc(OCc4cccc(C)n4)nc23)cc(C)n1 [Example 59, 3-(5-amino-8-(2-methoxy-6-methylpyridin-4-yl)-2-((6-methylpyridin-2-yl)methoxy)-[1,2,4]triazolo[1,5-c]pyrimidin-7-yl)benzonitrile]
7 | ≥ 8.00 | 7.00 to 8.00 | Cc1cccc(CNc2nc3c(-c4ccncn4)c(-c4cccc(C#N)c4)nc(N)n3n2)n1 [Example 65, 3-(5-amino-2-(((6-methylpyridin-2-yl)methyl)amino)-8-(pyrimidin-4-yl)-[1,2,4]triazolo[1,5-c]pyrimidin-7-yl)benzonitrile]
8 | ≥ 8.00 | 7.00 to 8.00 | Cc1cccc(CNc2nc3c(-c4ccc(=O)n(C)n4)c(-c4cccc(C#N)c4)nc(N)n3n2)n1 [Example 67, 3-(5-amino-8-(1-methyl-6-oxo-1,6-dihydropyridazin-3-yl)-2-(((6-methylpyridin-2-yl)methyl)amino)-[1,2,4]triazolo[1,5-c]pyrimidin-7-yl)benzonitrile]
9 | ≥ 8.00 | ≥ 8.00 | Cc1cccc(CNc2nc3c(-c4ccncc4C)c(-c4cccc(C#N)c4)nc(N)n3n2)n1 [Example 68, 3-(5-amino-2-(((6-methylpyridin-2-yl)methyl)amino)-8-(3-methylpyridin-4-yl)-[1,2,4]triazolo[1,5-c]pyrimidin-7-yl)benzonitrile]
10 | ≥ 8.00 | < 6.00 | Cc1cc(-c2c(-c3cccc(C#N)c3)nc(N)n3nc(NCc4cccc(C)n4)nc23)cc(C)n1 [Example 69, 3-(5-amino-8-(2,6-dimethylpyridin-4-yl)-2-(((6-methylpyridin-2-yl)methyl)amino)-[1,2,4]triazolo[1,5-c]pyrimidin-7-yl)benzonitrile]
11 | ≥ 8.00 | 6.00 to 7.00 | COc1cc(-c2c(-c3cccc(C#N)c3)nc(N)n3nc(NCc4cccc(C)n4)nc23)cc(C)n1 [Example 70, 3-(5-amino-8-(2-methoxy-6-methylpyridin-4-yl)-2-(((6-methylpyridin-2-yl)methyl)amino)-[1,2,4]triazolo[1,5-c]pyrimidin-7-yl)benzonitrile]

Reference: patent US20250034153A1, “TRIAZOLOPYRIMIDINES AS A2A / A2B INHIBITORS” (Incyte Corporation, priority 2019, published 2025)
